{"source": "patent US11299515B2", "about": "“Optimized peptides for targeting human nerves and their use in image guided surgery, diagnostics and therapeutic” (The Regents of the University of California, priority 2017, dated 2022)", "key": {"[1]": {"tested_on": "autonomic (cavernosal) nerves from human prostate gland", "assay": "Topical application on autonomic nerves from human prostate gland", "type": "binding", "details": "100 μM topical, two patients", "description": "FAM-HNP401 and FAM-NP41 were then tested topically for binding to autonomic nerves, isolated from excised prostate glands of two human patients (FIGS. 12 and 13). […] Labelled fiber were confirmed as nerve using anti-neurofilament antibody SMI312 (red) and DAPI (blue) to show nuclear labeling (FIG. 12C). H&E staining was also done to confirm label tissue as nerve (FIG. 12D). Similar staining was obtained for peripheral sensory anti-brachial cutaneous nerve isolated from a human arm (FIGS. 12E-H).\nFAM-HNP401 and FAM-NP41 were tested for binding to autonomic nerves, isolated from the prostate glands of two human patients (FIGS. 19 and 29). […] Quantitation was not done because only 2 patient samples were available for testing as nerve resection during radical prostatectomy is only performed in instances of gross capsular invasion. Labelled fibers were confirmed as nerve using anti-neurofilament antibody SMI312 (red) with DAPI (blue) to show nuclear labeling (FIG. 19C). H&E staining also confirmed label tissue as nerve by histology (FIG. 19D). […] Similar staining using FAM-HNP401 was obtained for another sensory nerve (anti-brachial cutaneous) isolated from human arm showing the broad nerve binding activity of HNP401 (FIGS. 19E-H).\nHuman sural nerve, antebrachial nerve and laryngeal nerve and temporalis muscle were obtained under IRB protocol number 130837 for Dr. Quyen Nguyen. […]"}, "human laryngeal nerve": {"tested_on": "human laryngeal nerve", "assay": "Dose response by topical application on human laryngeal nerve sections", "type": "binding", "description": "FIG. 25: Differential binding of nerve binding peptides to human and mouse tissue. Determination of optimal dose response by topical application of FAM-HNP401 on human laryngeal nerve sections at final concentration of 375 μM (A), 100 μM (B), 50 μM (C), 10 μM (D) and 1 μM (E), imaged with confocal microscopy with identical parameters and levelled equally for comparison. ** brightened 2 fold for viewing. Nerve to muscle contrast at high concentration of 375 μM for FAM-NP41 (F and G) and FAM-HNP401 (H and I) imaged on confocal microscopy and levelled for direct comparison. Mouse facial nerve (red arrows) with surrounding muscle treated with 375 μM (J), 100 μM (K) of FAM-NP41 or 375 μM (L), 100 μM (M) of FAMHNP401.\nDose response data set of FAM-HNP401 on human nerve tissue (FIG. 25:A-E) was acquired with 488 nm laser line, 10μm sections on glass at 10× magnification, 0.45 NA air objective lens. Gain set to 40, power set to 3% of laser power, pixel dwell value of 1.2 μs, aperture size of 1.1 μm and a pixel size of 0.3 μm/px with a 2 k by 2 k size image.\nHuman sural nerve, antebrachial nerve and laryngeal nerve and temporalis muscle were obtained under IRB protocol number 130837 for Dr. Quyen Nguyen. Human peripheral nerves (typically sural) were obtained from patients undergoing nerve resection procedures. […]"}, "[2]": {"assay": "Stability in ex-vivo human plasma (LC-MS)", "details": "37° C., 5 min vs 2 hours", "description": "An equal volume of 1:1 acetonitrile:water with 2% acetic acid is added to precipitate the protein matter, supernatant is extracted for analysis by LC-MS on a C18 reverse phase column with gradient of 9:1 H2O+0.05% TFA:Acetonitrile+0.05% TFA to 1:9 H2O+0.05% TFA:Acetonitrile+0.05% TFA in 20 min.\nThe bladder was drained with a syringe and sutured to avoid spillage and contamination around prostate. […] Stability of FAM-HNP401 in human plasma at 5 minutes and 2 hours was determined by incubation of peptide dye conjugate in human serum prior to analysis by mass spectrometry."}}, "note": "Entries after “also recorded” stand apart in the source; their conditions may differ. Residues, ends and D or L forms follow the SMILES beside them. *: point of attachment. Fluorescein(5-Mal) = O=C1OC2(c3ccc(O)cc3Oc3cc(O)ccc32)c2ccc(N3C(=O)CC(*)C3=O)cc21", "data": [{"smiles": "CC(=O)N[C@@H](CO)C(=O)NCC(=O)N[C@@H](CCC(N)=O)C(=O)N[C@H](C(=O)N1CCC[C@H]1C(=O)N[C@@H](Cc1c[nH]c2ccccc12)C(=O)N[C@@H](CCC(=O)O)C(=O)N[C@@H](CCC(=O)O)C(=O)N1CCC[C@H]1C(=O)N[C@@H](Cc1ccc(O)cc1)C(=O)N[C@@H](Cc1ccc(O)cc1)C(=O)N[C@H](C(=O)N[C@H](C(=O)N[C@@H](CCCCN)C(=O)N[C@@H](CCCCN)C(=O)N[C@@H](CO)C(=O)N[C@@H](CO)C(=O)NCC(=O)NCC(=O)N[C@@H](CSC1CC(=O)N(c2ccc3c(c2)C(=O)OC32c3ccc(O)cc3Oc3cc(O)ccc32)C1=O)C(N)=O)C(C)C)C(C)C)C(C)C", "note": "(stereo partly shown) [FAM-HNP401] (Ac-SGQVPWEEPYYVVKKSSGGC(Fluorescein(5-Mal))-NH2; N-terminus and C-terminus assumed)", "values": [{"measurement": "fluorescent signal in human autonomic nerves compared to FAM-NP41", "setting": "[1]", "value": "significantly higher fluorescent signal"}, {"measurement": "concentration giving optimal nerve contrast", "setting": "human laryngeal nerve; topical 1 to 375 μM", "value": "50 to 100", "unit": "µM"}, {"measurement": "concentration at which signal from human nerve saturates", "setting": "human laryngeal nerve; topical up to 375 μM", "value": "≤ 100", "unit": "µM"}, {"measurement": "stability in human plasma", "setting": "[2]", "value": "remain intact at 2 hours; also recorded: stable"}]}]}
